Assay results from US20090062251A1, “Novel Compounds 002” (ASTRAZENECA AB, priority 2007, published 2009).

Columns and labels:
[1] = target: T1, Human CB1 receptor (hCB1) (Homo sapiens, UniProt P21554); test: hCB1 receptor binding (3H-CP55,940 displacement); details: hCB1 membranes, Ki=IC50/(1+[rad]/Kd)
T1 construct: purchased Receptor Biology
Method: hCB1 and hCB2 Receptor Binding
Human CB1 receptor from Receptor Biology (hCB1) or human CB2 receptor from BioSignal (hCB2) membranes are thawed at 37° C., passed 3 times through a 25-gauge blunt-end needle, diluted in the cannabinoid binding buffer (50 mM Tris, 2.5 mM EDTA, 5 mM MgCl2, and 0.5 mg/mL BSA fatty acid free, pH 7.4) and aliquots containing the appropriate amount of protein are distributed in 96-well plates. […] The total and non-specific binding are determined in the absence and presence of 0.2 μM of HU210 respectively. The plates are vortexed and incubated for 60 minutes at room temperature, filtered through Unifilters GF/B (presoaked in 0.1% polyethyleneimine) with the Tomtec or Packard harvester using 3 mL of wash buffer (50 mM Tris, 5 mM MgCl2, 0.5 mg BSA pH 7.0). The filters are dried for 1 hour at 55° C. The radioactivity (cpm) is counted in a TopCount (Packard) after adding 65 μl/well of MS-20 scintillation liquid.
Based on the above assays, the dissociation constant (Ki) for a particular compound of the invention towards a particular receptor is determined using the following equation:
[rad] is a standard or reference radioactive ligand concentration at that moment; and
Kd is the dissociation constant of the radioactive ligand towards the particular receptor.

[2] = target: T1, Human CB1 receptor (hCB1); test: hCB1 GTPγS binding; type: biochemical; details: for EC50: hCB1 membranes, GTPγ35S, 10-point dose-response; for Emax: maximal stimulated binding determined with 10 μM Win 55,212-2
Method: hCB1 and hCB2 GTPγS Binding
Human CB1 receptor from Receptor Biology (hCB1) or human CB2 receptor membranes (BioSignal) are thawed at 37° C., passed 3 times through a 25-gauge blunt-end needle and diluted in the GTPγS binding buffer (50 mM Hepes, 20 mM NaOH, 100 mM NaCl, 1 mM EDTA, 5 mM MgCl2, pH 7.4, 0.1% BSA). […] The basal and maximal stimulated binding is determined in absence and presence of 1 μM (hCB2) or 10 μM (hCB1) Win 55, 212-2 respectively. The membranes are pre-incubated for 5 minutes with 56.25 μM (hCB2) or 112.5 μM (hCB1) GDP prior to distribution in plates (15 μM (hCB2) or 30 μM (hCB1) GDP final). The plates are vortexed and incubated for 60 minutes at room temperature, filtered on Unifilters GF/B (presoaked in water) with the Tomtec or Packard harvester using 3 ml of wash buffer (50 mM Tris, 5 mM MgCl2, 50 mM NaCl, pH 7.0). The filters are dried for 1 hour at 55° C. The radioactivity (cpm) is counted in a TopCount (Packard) after adding 65 μl/well of MS-20 scintillation liquid. Antagonist reversal studies are done in the same way except that (a) an agonist dose-response curve is done in the presence of a constant concentration of antagonist, or (b) an antagonist dose-response curve is done in the presence of a constant concentration of agonist.

T1 sequence (P21554 whole entry): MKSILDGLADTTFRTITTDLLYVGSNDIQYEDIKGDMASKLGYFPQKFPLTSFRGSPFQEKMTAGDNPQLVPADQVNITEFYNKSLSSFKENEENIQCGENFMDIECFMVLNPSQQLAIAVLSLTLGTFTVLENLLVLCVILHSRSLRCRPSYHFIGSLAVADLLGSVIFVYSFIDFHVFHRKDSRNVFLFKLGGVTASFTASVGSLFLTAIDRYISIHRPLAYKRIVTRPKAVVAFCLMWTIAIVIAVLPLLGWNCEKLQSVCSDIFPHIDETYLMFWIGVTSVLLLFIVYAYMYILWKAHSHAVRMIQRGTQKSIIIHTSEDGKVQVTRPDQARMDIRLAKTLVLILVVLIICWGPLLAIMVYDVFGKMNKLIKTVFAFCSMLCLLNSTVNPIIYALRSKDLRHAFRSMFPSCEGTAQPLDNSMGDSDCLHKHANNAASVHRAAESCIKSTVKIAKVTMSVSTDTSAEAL

Compound | Ki [1] [nM] | EC50 [2] [nM] | Emax [2] [%]
CN(CCCC(=O)NCCO)C(=O)c1ccc2c(c1)c1c(n2C)CCC(C2CCOCC2)C1 (stereo not shown) [N-[3-(2-hydroxyethylcarbamoyl)propyl]-N,9-dimethyl-6-(oxan-4-yl)-5,6,7,8-tetrahydrocarbazole-3-carboxamide] | 90.9 | 155 | 122
CCN(CC(=O)N[C@@H]1CCOC1)C(=O)c1ccc2c(c1)c1c(n2C)CCC(C2CCOCC2)C1 (stereo partly drawn) [N-ethyl-9-methyl-6-(oxan-4-yl)-N-[[(3R)-oxolan-3-yl]carbamoylmethyl]-5,6,7,8-tetrahydrocarbazole-3-carboxamide] | 218 | 525 | 127
CCNC(=O)CN(CC)C(=O)c1ccc2c(c1)c1c(n2C2CCC2)CCC(C2CCOCC2)C1 (stereo not shown) [9-cyclobutyl-N-ethyl-N-(ethylcarbamoylmethyl)-6-(oxan-4-yl)-5,6,7,8-tetrahydrocarbazole-3-carboxamide] | 113 | 233 | 82
CCNC(=O)[C@@H](C)N(C)C(=O)c1ccc2c(c1)c1c(n2C)CCC(C2CCOCC2)C1 (stereo partly drawn) [N-[(1R)-1-(ethylcarbamoyl)ethyl]-N,9-dimethyl-6-(oxan-4-yl)-5,6,7,8-tetrahydrocarbazole-3-carboxamide] | 77.1 | 237 | 112
Cn1c2c(c3cc(C(=O)N4CCC(C(=O)NC5CC5)C4)ccc31)CC(C1CCOCC1)CC2 (stereo not shown) [N-cyclopropyl-1-[9-methyl-6-(oxan-4-yl)5,6,7,8-tetrahydrocarbazole-3-carbonyl]pyrrolidine-3-carboxamide] | 26 | 18.5 | 121
CN(CC(=O)NC1CC1)C(=O)c1ccc2c(c1)c1c(n2S(C)(=O)=O)CCC(C2CCCCC2)C1 (stereo not shown) [6-cyclohexyl-N-(cyclopropylcarbamoylmethyl)-N-methyl-9-methylsulfonyl-5,6,7,8-tetrahydrocarbazole-3-carboxamide] | 7.9 | 31.3 | 111
CN(CCC(=O)NC1CC1)C(=O)c1ccc2c(c1)c1c(n2C)CCC(C2CCOCC2)C1 (stereo not shown) [N-[2-(cyclopropylcarbamoyl)ethyl]-N,9-dimethyl-6-(oxan-4-yl)-5,6,7,8-tetrahydrocarbazole-3-carboxamide] | 655 | – | –
CCN(CC(=O)N[C@H]1CCOC1)C(=O)c1ccc2c(c1)c1c(n2C)CCC(C2CCOCC2)C1 (stereo partly drawn) [N-ethyl-9-methyl-6-(oxan-4-yl)-N-[[(3S)-oxolan-3-yl]carbamoylmethyl]-5,6,7,8-tetrahydrocarbazole-3-carboxamide] | 58.1 | 100 | 122
CCN(CC(=O)NCCCF)C(=O)c1ccc2c(c1)c1c(n2S(=O)(=O)CC)CCC(C2CCOCC2)C1 (stereo not shown) [N-ethyl-9-ethylsulfonyl-N-(3-fluoropropylcarbamoylmethyl)-6-(oxan-4-yl)-5,6,7,8-tetrahydrocarbazole-3-carboxamide] | 24 | 33 | 120
CCN(CC(=O)NCCOC)C(=O)c1ccc2c(c1)c1c(n2C)CCC(C2CCOCC2)C1 (stereo not shown) [N-ethyl-N-(2-methoxyethylcarbamoylmethyl)-9-methyl-6-(oxan-4-yl)-5,6,7,8-tetrahydrocarbazole-3-carboxamide] | 219 | 457 | 113
Cn1c2c(c3cc(C(=O)N4CC(CC(=O)NC5CC5)C4)ccc31)CC(C1CCOCC1)CC2 (stereo not shown) [N-cyclopropyl-2-[1-[9-methyl-6-(oxan-4-yl)5,6,7,8-tetrahydrocarbazole-3-carbonyl]azetidin-3-yl]acetamide] | 2080 | – | –
CCN(CC(=O)NCC#N)C(=O)c1ccc2c(c1)c1c(n2C)CCC(C2CCOCC2)C1 (stereo not shown) [N-(cyanomethylcarbamoylmethyl)-N-ethyl-9-methyl-6-(oxan-4-yl)-5,6,7,8-tetrahydrocarbazole-3-carboxamide] | 333 | – | –
Cn1c2c(c3cc(C(=O)NCCCC(=O)NC4CC4)ccc31)CC(C1CCOCC1)CC2 (stereo not shown) [N-[3-(cyclopropylcarbamoyl)propyl]-9-methyl-6-(oxan-4-yl)-5,6,7,8-tetrahydrocarbazole-3-carboxamide] | 1440 | – | –
CNCCN(C)C(=O)c1ccc2c(c1)c1c(n2C)CCC(C2CCOCC2)C1 (stereo not shown) [N,9-dimethyl-N-(2-methylaminoethyl)-6-(oxan-4-yl)-5,6,7,8-tetrahydrocarbazole-3-carboxamide] | > 8720 | – | –
C[C@@H](C(=O)NCCF)N(C)C(=O)c1ccc2c(c1)c1c(n2C)CCC(C2CCOCC2)C1 (stereo partly drawn) [N-[(1S)-1-(2-fluoroethylcarbamoyl)ethyl]-N,9-dimethyl-6-(oxan-4-yl)-5,6,7,8-tetrahydrocarbazole-3-carboxamide] | > 1400 | – | –
CN(C(=O)c1ccc2c(c1)c1c(n2C)CCC(C2CCOCC2)C1)C1(C(=O)NC2CC2)CC1 (stereo not shown) [N-[1-(cyclopropylcarbamoyl)cyclopropyl]-N,9-dimethyl-6-(oxan-4-yl)-5,6,7,8-tetrahydrocarbazole-3-carboxamide] | 371 | – | –
C[C@@H](C(=O)NC1CC1)N(C)C(=O)c1ccc2c(c1)c1c(n2C)CCC(C2CCOCC2)C1 (stereo partly drawn) [N-[(1S)-1-(cyclopropylcarbamoyl)ethyl]-N,9-dimethyl-6-(oxan-4-yl)-5,6,7,8-tetrahydrocarbazole-3-carboxamide] | > 3530 | – | –
Cn1c2c(c3cc(C(=O)NCCF)ccc31)CC(C1CCOCC1)CC2 (stereo not shown) [N-(2-fluoroethyl)-9-methyl-6-(oxan-4-yl)-5,6,7,8-tetrahydrocarbazole-3-carboxamide] | 659 | – | –
CCNC(=O)CN(CC)C(=O)c1ccc2c(c1)c1c(n2CC(=O)NC)CCC(C2CCOCC2)C1 (stereo not shown) [N-ethyl-N-(ethylcarbamoylmethyl)-9-(methylcarbamoylmethyl)-6-(oxan-4-yl)-5,6,7,8-tetrahydrocarbazole-3-carboxamide] | – | > 30000 | > 9
CCN(CC(=O)NC1(C#N)CC1)C(=O)c1ccc2c(c1)c1c(n2C)CCC(C2CCOCC2)C1 (stereo not shown) [N-[(1-cyanocyclopropyl)carbamoylmethyl]-N-ethyl-9-methyl-6-(oxan-4-yl)-5,6,7,8-tetrahydrocarbazole-3-carboxamide] | > 1170 | – | –
CC(C)NC(=O)CC[C@@H](CO)N(C)C(=O)c1ccc2c(c1)c1c(n2C)CC[C@@H](C2CCOCC2)C1 [(R)—N-((S)-1-Hydroxy-5-(isopropylamino)-5-oxopentan-2-yl)-N,9-dimethyl-3-(tetrahydro-2H-pyran-4-yl)-2,3,4,9-tetrahydro-1H-carbazole-6-carboxamide] | – | 133 | 129
CNC(=O)CCCN(C)C(=O)c1ccc2c(c1)c1c(n2C)CCC(C2CCOCC2)C1 (stereo not shown) [N,9-dimethyl-N-[3-(methylcarbamoyl)propyl]-6-(oxan-4-yl)-5,6,7,8-tetrahydrocarbazole-3-carboxamide] | – | – | 102
CCNC(=O)CN(CC)C(=O)c1ccc2c(c1)c1c(n2CC(C)(C)O)CCC(C2CCOCC2)C1 (stereo not shown) [N-ethyl-N-(ethylcarbamoylmethyl)-9-(2-hydroxy-2-methyl-propyl)-6-(oxan-4-yl)-5,6,7,8-tetrahydrocarbazole-3-carboxamide] | – | > 30000 | > 34
CNC(=O)CC[C@@H](CO)N(C)C(=O)c1ccc2c(c1)c1c(n2C)CC[C@@H](C2CCOCC2)C1 [(R)—N-((S)-1-Hydroxy-5-(methylamino)-5-oxopentan-2-yl)-N,9-dimethyl-3-(tetrahydro-2H-pyran-4-yl)-2,3,4,9-tetrahydro-1H-carbazole-6-carboxamide] | – | 101 | 124
